Experimental data reported in US20240139221A1, “TREATMENT OF HPV-INDUCED NEOPLASIA” (priority 2022, published 2024).

Tests used:
[1] = Solubility in buffers, water and simulated vaginal fluid at 37° C.; conditions: for pH of solution, 2 hours: 37° C.
Experimental: About 4 mg of Compound I Pattern 1 was added into 2 mL of buffer solution.
(§1) Solubility was tested in five media, pH 3.0 citrate buffer, pH 4.5 acetate buffer, pH 6.8 phosphate buffer, water, simulated vaginal fluid (pH 4.2) at 37° C. for 0.5 h and 2 h.
The salt amount used is equivalent to 10 mg anhydrous free base. […] The obtained clear solutions were analyzed by pH meter for pH, and solubility was determined by observation.
as §1

[2] = Hygroscopicity by DVS at 25° C.; format: physicochemical
Experimental: Hygroscopicity was investigated by DVS at 25° C., using the following method: […]

[3] = Ex vivo permeation and penetration across porcine vaginal tissue (Franz diffusion cells, IVPT); format: in vitro ADME; conditions: FIG. 116
Text: (§2) FIG. 116 is an in vitro tissue permeation test in vaginal tissue comparing Compound II to ABI-1968. […] Bars B and C show the tissue penetration of a 0.1% Compound II gel in human cervical tissue. […] This may be a contributing factor to the performance of ABI-1968 in clinical studies. […] This is described in Example 41.
Freshly harvested porcine vaginal tissue was procured from local slaughterhouse in an ice box. The vaginal tissue was cut open to expose the mucosal surface and tissue was cleaned by gentle flow of PBS pH 7.4. The porcine vaginal tissue was cut into circular portions (approximately 2 cm^2) with help of a […] punch.
The circular portion of tissue was sandwiched between two chambers of a Franz diffusion cell with an active diffusion area of 1 cm^2, and the mucosal layer was exposed to the donor chambers. The resistance across porcine vaginal tissue was measured using a wave form generator to ensure the integrity of the tissue segment used for the permeation study. Porcine vaginal tissue with resistance of ≥3 KΩ·cm^2 was used for study. The receiver chamber was filled with 8 ml of 5% solutol PBS 7.4 pH, which was stirred at 600 rpm with a 3 mm magnetic stir bar and the temperature was maintained at 37° C. with a circulating water bath.
The ˜200 mg of gel was filled into tared 1 mL syringe and gel was dispensed to donor chamber. […]

[4] = In vitro tissue permeation test in human cervical tissue; format: in vitro ADME; conditions: 0.1% gel, FIG. 116
Text: as §2

[5] = Polymorph screening by equilibration in solvents at 25° C. (crystal modification, XRPD); format: physicochemical
[6] = Bulk stability (accelerated stability, one week; HPLC and XRPD); conditions: for Bulk (XRPD) / Color / Purity, Bulk (HPLC): Solid state, 1 week
Experimental: Bulk stability: Accelerated stability experiments were conducted at 25° C./92% RH and 40° C./75% RH in an open container, 60° C. in a tight container for one week.
Samples were characterized by XRPD and HPLC and inspected for color change.
Accelerated stability experiments were conducted at 25° C./92% RH in an open container, at 40° C./75% RH in an open container, and at 60° C. in a tight container for one week.

[7] = 37 °C, pH 3, aqueous buffer, thermodynamic from solid
[8] = 37 °C, pH 4.2, fassgf or other biorelevant, thermodynamic from solid
[9] = 37 °C, pH 4.5, aqueous buffer, thermodynamic from solid
[10] = 37 °C, pH 6.8, aqueous buffer, thermodynamic from solid
[11] = 37 °C, water, thermodynamic from solid

## CCOC(=O)[C@H](C)N[P@@](=O)(COCCn1cnc2c(OC)nc(N)nc21)OCc1ccccc1.O=C(O)/C=C/C(=O)O [Compound II]
[1]; 37 °C, aqueous buffer, thermodynamic from solid
  solubility: > 2000 µg/mL
[1]; [7]
  solubility at 0.5 h: > 2000 µg/mL
  solubility at 2 h: > 2000 µg/mL
[1]; [8]
  solubility at 0.5 h: > 2000 µg/mL
  solubility at 2 h: > 2000 µg/mL
[1]; [9]
  solubility at 0.5 h: > 2000 µg/mL
  solubility at 2 h: > 2000 µg/mL
[1]; [10]
  solubility at 0.5 h: > 2000 µg/mL
  solubility at 2 h: > 2000 µg/mL
[1]; [11]
  solubility at 0.5 h: > 2000 µg/mL
  solubility at 2 h: > 2000 µg/mL
[1]; Simulated vaginal fluid (pH adjusted by 0.1N NaOH)
  pH of solution, 2 hours: (5.79)
[1]; Water
  pH of solution, 2 hours: (2.87)
[1]; pH 3.0, 100 mM citrate buffer
  pH of solution, 2 hours: (2.85)
[1]; pH 4.5, 50 mM acetate buffer
  pH of solution, 2 hours: (4.2)
[1]; pH 6.8, 50 mM phosphate buffer
  pH of solution, 2 hours: (6.47)
[2]; DVS 25° C.
  Hygroscopicity (in words): slightly hygroscopic
[2]; after 40-0-95-0-40% RH cycle, 25° C.
  XRPD after DVS test: No form change
[2]; cycle of 40-0-95-0-45% relative humidity
  XRPD pattern after humidity cycle: does not change
[3]
  tissue penetration (in words): high tissue penetration
[4]
  tissue penetration (in words): high tissue penetration
[5]; PS1, solvent IPA
  Crystal modification after 1 week equilibration at 25° C.: Compound II Pattern 1
[5]; PS2, solvent Heptanes
  Crystal modification after 1 week equilibration at 25° C.: Compound II Pattern 1
[5]; PS3, solvent Water
  Crystal modification after 1 week equilibration at 25° C.: Compound II Pattern 1
[5]; PS4, solvent ACN
  Crystal modification after 1 week equilibration at 25° C.: Compound II Pattern 2
[5]; PS5, solvent MEK
  Crystal modification after 1 week equilibration at 25° C.: Compound II Pattern 3
[5]; PS6, solvent Acetone
  Crystal modification after 1 week equilibration at 25° C.: Compound II Pattern 1
[5]; PS7, solvent IPA/heptanes (3/10, v/v)
  Crystal modification after 1 week equilibration at 25° C.: Compound II Pattern 1
[5]; PS8, solvent water/ACN (2.9/97.1, v/v)
  Crystal modification after 1 week equilibration at 25° C.: Compound II Pattern 2
[5]; PS9, solvent IPA/MTBE (1/3, v/v)
  Crystal modification after 1 week equilibration at 25° C.: Compound II Pattern 1
[5]; PS10, solvent EA/toluene (1/3, v/v)
  Crystal modification after 1 week equilibration at 25° C.: Compound II Pattern 1
[6]; 25° C./92% RH open, 40° C./75% RH open, 60° C. tight container, one week
  physical and chemical stability (in words): good physical and chemical stability
[6]; 25° C./92% RH, open container
  Bulk (XRPD): No form change
  Color: No change
  Purity, Bulk (HPLC): 99.5%
[6]; 40° C./75% RH, open container
  Bulk (XRPD): No form change
  Color: No change
  Purity, Bulk (HPLC): 99.4%
[6]; 60° C., tight container
  Bulk (XRPD): No form change
  Color: No change
  Purity, Bulk (HPLC): 99.7%
[6]; initial, before storage
  Initial HPLC purity: 99.7%

## CCCCCCCCCCCCCCCCCCOCCOP(=O)(O)COCCn1cnc2c(=O)[nH]c(N)nc21 [ABI-1968, reference compound]
[3]
  tissue penetration (in words): substantially smaller degree
